Results published in patent US7442784B2, “Ligand activated transcriptional regulator proteins” (The Scripps Research Institute, priority 1999, dated 2008).

What was measured:
Assay in all cases: Finger 2 variant affinity (Table 5)
Type in all cases: binding
Finger-2 Subsite GTT = molecular target: Finger-2 Subsite GTT
Source text: (§1) Finger 2 variants recognizing each of the 16 triplets of the GXX set (Segal et al. (1999) Proc. Natl. Acad. Sci. U.S.A. 96:2758-2763; and Table 1), as well as one variant recognizing TGA, have been successfully selected. […] Thus, a 5′- and 3′-G selected an arginine at helix positions 6 and −1, respectively, while a central G selected an a histidine or lysine at position 3 of the recognition helix. In contrast, a central A selected an asparagine, a 3′-A a glutamine, a central T a serine or alanine, a 3′-T a threonine or serine, a central C an aspartate or threonine, and a 3′-C an aspartate or glutamate at the corresponding helix positions.
(§2) In Table 5, below, the finger 2 variants generated by phage display selection and refined by site-directed mutagenesis are summarized. Protein designations are in the form pXXX, for clones derived from panning; pmXXX refers to clones refined by mutagenesis. Helix positions −1, 3, and 6 are shown in bold, altered nucleotides are underlined. The values represent the results of at least two independent experiments. The standard error was ±50% or less.

Finger-2 Subsite GTG = molecular target: Finger-2 Subsite GTG
Source text: as §1, §2

Finger-2 Subsite GAG = molecular target: Finger-2 Subsite GAG
Source text: as §1, §2

Substance	KD,Prot/KD,Zif268 (Finger-2 Subsite GTT)	Kd (Finger-2 Subsite GTT) [nM]	KD,Prot/KD,Zif268 (Finger-2 Subsite GTG)	Kd (Finger-2 Subsite GTG) [nM]	KD,Prot/KD,Zif268 (Finger-2 Subsite GAG)	Kd (Finger-2 Subsite GAG) [nM]
pmGTT: finger 2 variant refined by mutagenesis, helix STSGSLVR	0.5	5				
pmGTG: finger 2 variant refined by mutagenesis, helix SRSDELVR			1.5	15	3.0	30
